For 7 compounds, EC50 results are on record in PubChem BioAssay AID493202 (Sanford-Burnham Center for Chemical Genomics, 2011).

Calls of active or inactive are those of the source.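 Rule for the calls: active = mean EC50 below 10 µM; inactive = the rest.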

The target in the assay is Type-1 angiotensin II receptor (Homo sapiens) (UniProt P30556). Nature of the assay: AT1 receptor agonists, beta-arrestin recruitment, SAR follow-up, selectivity assay for APJ agonist project, cell-based, CHO-K1 PathHunter, luminescence, set 4 (AID 493202). The settings on record: CHO-K1 AGTR1 PathHunter beta-arrestin, 90 min. (In general: Activated receptors often draw arrestin, which recruitment assays turn into a signal.)
Chain of Type-1 angiotensin II receptor (Homo sapiens) (P30556 whole entry, looked up): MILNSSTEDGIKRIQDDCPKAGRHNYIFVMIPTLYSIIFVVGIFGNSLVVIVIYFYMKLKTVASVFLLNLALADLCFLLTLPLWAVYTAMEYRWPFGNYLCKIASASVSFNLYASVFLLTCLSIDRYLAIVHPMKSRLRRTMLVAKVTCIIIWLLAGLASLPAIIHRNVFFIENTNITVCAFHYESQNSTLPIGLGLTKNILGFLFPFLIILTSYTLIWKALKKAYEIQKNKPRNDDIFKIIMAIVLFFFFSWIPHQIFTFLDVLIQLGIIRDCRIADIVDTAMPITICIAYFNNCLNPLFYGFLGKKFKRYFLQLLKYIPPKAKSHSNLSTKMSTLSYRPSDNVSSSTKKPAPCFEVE

What is called EC50 is the concentration that produces a half-maximal response. In the case of `CC1=CC(=O)C(C(C)C)=C/C1=N/OS(=O)(=O)c1ccc(C(C)(C)C)cc1`, the EC50 was > 79 µM (inactive).

With `CC1=CC(=O)C(C(C)C)=C/C1=N/OS(=O)(=O)c1ccc(C(F)(F)F)cc1`, the EC50 was > 79 µM (inactive). In the case of `Cc1cc(O)c(C(C)C)cc1NS(=O)(=O)c1ccccc1`, the EC50 was > 79 µM (inactive). Next, `COC(=O)c1cc(NS(=O)(=O)c2ccccc2)ccc1O`: > 79 µM (inactive); `CC1=CC(=O)C(C(C)C)=C/C1=N/OS(=O)(=O)c1cccnc1`: > 79 µM (inactive).

Turning to `CC1=CC(=O)C(C(C)C)=C/C1=N/OS(=O)(=O)c1ccc(OC(F)(F)F)cc1`, the EC50 was > 79 µM (inactive). On to `O=S(=O)(Nc1cc(Cl)c(O)c(Cl)c1)c1ccccc1`, for which the EC50 was > 79 µM (inactive).
